For one data set, the target named is human serum albumin (Homo sapiens, UniProt P02768). The data set is described as follows: PPB studies on HSA HPLC column. The note with it: CHIRALPAK HSA HPLC column (human serum albumin); experimentally determined percentage of the compound bound to human serum albumin. It counts as in vitro ADME. Here is the method: (§1) Both were experimentally obtained employing HPLC-based protocols.[39],[40] […] PPB values were determined in view of how they could impact future pharmacokinetic studies of compounds as VHL inhibitors, or once conjugated into bifunctional PROTACs, for which PPB can be a limiting factor.
PPB was estimated by correlating the logarithmic retention times of the analytes on a […] HSA 50 × 3 mm, 5 μm column with the literature-known % PPB values (converted into log K values) of the following drugs: warfarin, ketoprofen, budesonide, nizatidine, indomethacin, acetylsalicylic acid, carbamazepine, piroxicam, nicardipine, and cimetidine.[63] Samples were dissolved in MeCN/DMSO 9:1 to achieve a final concentration of 0.5 mg/mL. The mobile phase A was 50 mM ammonium acetate adjusted to pH 7.4 with 10% NaOH, while mobile phase B was iPrOH. […] After injecting 3 μL of the sample, a linear gradient from 100% A to 30% iPrOH in 5.4 min was applied. From 5.4 to 18 min, 30% iPrOH was kept, followed by switching back to 100% A in 1.0 min and a re-equilibration time of 6 min.

Another data set has as its target T1, VCB protein (Homo sapiens, UniProt P40337).
T1 construct: A plasmid containing pVHL54–213 with an N-terminal His6 tag; His6 (N, cleaved yes); made in house; host or cells: Escherichia coli BL21 (DE3)
The data set is described as follows: Competitive fluorescence polarization (FP) binding assay, displacement of FAM-labeled HIF-1α peptide. The note with it: for Kd: dissociation constant, determined by FP, mean ± S.E.M., back-calculated from IC50; for IC50: mean IC50 values obtained from the FP assay, read-out: IC50 ± S.E.M, FP assay. On the procedure: Binding of a ligand to the HIF binding site of VHL displaces a fluorescein-labeled, 19-mer HIF-1α oligopeptide, leading to a change in polarization of emitted light upon excitation of the competing fluorescent probe.
All components were dissolved from stock solutions using 100 mM Bis–Tris, 100 mM NaCl, 1 mM DTT, pH 7.0, to yield a final assay volume of 15 μL. DMSO was added as appropriate to ensure a final concentration of 2% (v/v). Control wells containing VCB and JC9 with no compound (zero displacement), or JC9, in the absence of protein (maximum displacement) were also included to allow for normalization. Percentage displacement values were obtained by normalization of controls and were plotted against log[compound]. The IC50 values were determined for each titration using non-linear regression analysis with Prism GraphPad (Table S1). Dissociation constants Kd for the compound–VCB interaction were back-calculated from the measured IC50 values by using a displacement binding model as described.[16],[64]

Data set [1] can be described thus: Log D7.4 measurement by chromatographic method. It counts as physicochemical. The note with it: experimental distribution coefficient at pH 7.4; read-out: e log D7.4. Here is the method: as §1
The determination of the log D7.4 values was performed by a chromatographic method as described previously.[41],[62] […] Subsequently, the mean retention times (n = 2) of the analytes were taken to calculate their log D7.4 values.

The structures appear in SMILES notation.

Regarding `Cc1cc(-c2scnc2C)c(C)cc1CNC(=O)[C@@H]1C[C@@H](O)CN1C(=O)[C@@H](NC(=O)C1(C#N)CC1)C(C)(C)C` [Compound 14, (2S,4R)-1-((S)-2-(1-Cyanocyclopropane-1-carboxamido)-3,3-dimethylbutanoyl)-N-(2,5-dimethyl-4-(4-methylthiazol-5-yl)benzyl)-4-hydroxypyrrolidine-2-carboxamide], the fraction unbound at 0.5 mg/mL on human serum albumin was 0.1. Besides, at VCB protein, the Kd was 0.528 ± 0.016 µM and the IC50 is 2.74 ± 0.122 µM. Moreover, the chromatographic logD in data set [1] was 2.2.
For `COc1cc(-c2scnc2C)c(OC)cc1CNC(=O)[C@@H]1C[C@@H](O)CN1C(=O)[C@@H](NC(=O)C1(C#N)CC1)C(C)(C)C` [Compound 15, (2S,4R)-1-((S)-2-(1-Cyanocyclopropane-1-carboxamido)-3,3-dimethylbutanoyl)-N-(2,5-dimethoxy-4-(4-methylthiazol-5-yl)benzyl)-4-hydroxypyrrolidine-2-carboxamide] the same measures were 0.14, 1.27 ± 0.15 µM, 6.53 ± 0.428 µM and 1.9.
With `Cc1ncsc1-c1cc(F)c(CNC(=O)[C@@H]2C[C@@H](O)CN2C(=O)[C@@H](NC(=O)C2(C#N)CC2)C(C)(C)C)cc1F` [Compound 16, (2S,4R)-1-((S)-2-(1-Cyanocyclopropane-1-carboxamido)-3,3-dimethylbutanoyl)-N-(2,5-difluoro-4-(4-methylthiazol-5-yl)benzyl)-4-hydroxypyrrolidine-2-carboxamide], the fraction unbound at 0.5 mg/mL on human serum albumin is 0.12. On VCB protein, the Kd was 0.281 ± 0.046 µM and the IC50 worked out at 1.44 ± 0.198 µM. In addition, the chromatographic logD in data set [1] came to 2.
On the same counts, the results for `Cc1ncsc1-c1cc(Cl)c(CNC(=O)[C@@H]2C[C@@H](O)CN2C(=O)[C@@H](NC(=O)C2(C#N)CC2)C(C)(C)C)cc1Cl` [Compound 17, (2S,4R)-1-((S)-2-(1-Cyanocyclopropane-1-carboxamido)-3,3-dimethylbutanoyl)-N-(2,5-dichloro-4-(4-methylthiazol-5-yl)benzyl)-4-hydroxypyrrolidine-2-carboxamide] are 0.07, 0.883 ± 0.068 µM, 4.56 ± 0.208 µM and 2.5.
As to `Cc1ncsc1-c1ccc(CNC(=O)[C@@H]2C[C@@H](O)CN2C(=O)[C@@H](NC(=O)C2(C#N)CC2)C(C)(C)C)c(C)c1C` [Compound 18, (2S,4R)-1-((S)-2-(1-Cyanocyclopropane-1-carboxamido)-3,3-dimethylbutanoyl)-N-(2,3-dimethyl-4-(4-methylthiazol-5-yl)benzyl)-4-hydroxypyrrolidine-2-carboxamide], on human serum albumin, the fraction unbound at 0.5 mg/mL was found to be 0.09. On VCB protein, the Kd was 0.322 ± 0.038 µM and the IC50 is 1.65 ± 0.1 µM. Besides, in data set [1], the chromatographic logD was 2.3.
On the same counts, the results for `Cc1ncsc1-c1ccc(CNC(=O)[C@@H]2C[C@@H](O)CN2C(=O)[C@@H](NC(=O)C2(C#N)CC2)C(C)(C)C)c(F)c1F` [Compound 19, (2S,4R)-1-((S)-2-(1-Cyanocyclopropane-1-carboxamido)-3,3-dimethylbutanoyl)-N-(2,3-difluoro-4-(4-methylthiazol-5-yl)benzyl)-4-hydroxypyrrolidine-2-carboxamide] are 0.11, 1.45 ± 0.18 µM, 7.45 ± 0.624 µM and 2.2.
For `Cc1ncsc1-c1ccc(CNC(=O)[C@@H]2C[C@@H](O)CN2C(=O)[C@@H](NC(=O)C2(C#N)CC2)C(C)(C)C)c(O)c1F` [Compound 20, (2S,4R)-1-((S)-2-(1-Cyanocyclopropane-1-carboxamido)-3,3-dimethylbutanoyl)-N-(3-fluoro-2-hydroxy-4-(4-methylthiazol-5-yl)benzyl)-4-hydroxypyrrolidine-2-carboxamide], the fraction unbound at 0.5 mg/mL on human serum albumin is 0.11. In addition, on VCB protein, the dissociation constant Kd is 0.141 ± 0.008 µM and the IC50 was found to be 0.727 ± 0.007 µM. Also, the chromatographic logD in data set [1] was found to be 1.9.
`Cc1ncsc1-c1ccc(CNC(=O)[C@@H]2C[C@@H](O)CN2C(=O)[C@@H](NC(=O)C2(C#N)CC2)C(C)(C)C)c2ccccc12` [Compound 22, (2S,4R)-1-((S)-2-(1-Cyanocyclopropane-1-carboxamido)-3,3-dimethylbutanoyl)-4-hydroxy-N-((4-(4-methylthiazol-5-yl)naphthalen-1-yl)methyl)pyrrolidine-2-carboxamide] showed a fraction unbound at 0.5 mg/mL at human serum albumin of 0.07. At VCB protein, the Kd was 0.397 ± 0.07 µM and the IC50 turned out to be 2.02 ± 0.271 µM. Besides, the chromatographic logD in data set [1] stood at 2.3.
On the same counts, the results for `Cc1ncsc1-c1ccc(CNC(=O)[C@@H]2C[C@@H](O)CN2C(=O)[C@@H](NC(=O)C2(C#N)CC2)C(C)(C)C)c2ncccc12` [Compound 23, (2S,4R)-1-((S)-2-(1-Cyanocyclopropane-1-carboxamido)-3,3-dimethylbutanoyl)-4-hydroxy-N-((5-(4-methylthiazol-5-yl)quinolin-8-yl)methyl)pyrrolidine-2-carboxamide] are 0.12, 0.33 ± 0.093 µM, 1.67 ± 0.375 µM and 1.7.
On to `Cc1cc(-c2scnc2C)ccc1[C@H](C)NC(=O)[C@@H]1C[C@@H](O)CN1C(=O)[C@@H](NC(=O)C1(C#N)CC1)C(C)(C)C` [Compound 24, (2S,4R)-1-((S)-2-(1-Cyanocyclopropane-1-carboxamido)-3,3-dimethylbutanoyl)-4-hydroxy-N-((S)-1-(2-methyl-4-(4-methylthiazol-5-yl)phenyl)ethyl)pyrrolidine-2-carboxamide], for which the fraction unbound at 0.5 mg/mL at human serum albumin is 0.12. Further, on VCB protein, the Kd was 0.086 ± 0.02 µM and the IC50 stood at 0.329 ± 0.051 µM. Moreover, the chromatographic logD in data set [1] was found to be 2.3.
For `Cc1ncsc1-c1ccc([C@H](C)NC(=O)[C@@H]2C[C@@H](O)CN2C(=O)[C@@H](NC(=O)C2(C#N)CC2)C(C)(C)C)cc1F` [Compound 25, (2S,4R)-1-((S)-2-(1-Cyanocyclopropane-1-carboxamido)-3,3-dimethylbutanoyl)-N-((S)-1-(3-fluoro-4-(4-methylthiazol-5-yl)phenyl)ethyl)-4-hydroxypyrrolidine-2-carboxamide] the same measures were 0.12, 0.186 ± 0.04 µM, 0.718 ± 0.095 µM and 2.2.
On the same counts, the results for `Cc1cc(-c2scnc2C)c(F)cc1CNC(=O)[C@@H]1C[C@@H](O)CN1C(=O)[C@@H](NC(=O)C1(F)CC1)C(C)(C)C` [Compound 28, (2S,4R)-N-(5-Fluoro-2-methyl-4-(4-methylthiazol-5-yl)benzyl)-1-((S)-2-(1-fluorocyclopropane-1-carboxamido)-3,3-dimethylbutanoyl)-4-hydroxypyrrolidine-2-carboxamide] are 0.1, 0.08 ± 0.023 µM, 0.31 ± 0.065 µM and 2.3.
For `Cc1ncsc1-c1ccc2c(c1)CC[C@@H]2NC(=O)[C@@H]1C[C@@H](O)CN1C(=O)[C@@H](NC(=O)C1(C#N)CC1)C(C)(C)C` [Compound 34, (2S,4R)-1-((S)-2-(1-Cyanocyclopropane-1-carboxamido)-3,3-dimethylbutanoyl)-4-hydroxy-N-((S)-5-(4-methylthiazol-5-yl)-2,3-dihydro-1H-inden-1-yl)pyrrolidine-2-carboxamide] the same measures were 0.1, 3.92 ± 0.42 µM, 15.9 ± 0.934 µM and 2.2.
As to `Cc1ncsc1-c1cc2c(cc1F)[C@@H](NC(=O)[C@@H]1C[C@@H](O)CN1C(=O)[C@@H](NC(=O)C1(C#N)CC1)C(C)(C)C)CC2` [Compound 35, (2S,4R)-1-((S)-2-(1-Cyanocyclopropane-1-carboxamido)-3,3-dimethylbutanoyl)-N-((S)-6-fluoro-5-(4-methylthiazol-5-yl)-2,3-dihydro-1H-inden-1-yl)-4-hydroxypyrrolidine-2-carboxamide], the fraction unbound at 0.5 mg/mL at human serum albumin is 0.1. Besides, on VCB protein, the Kd is 4.04 ± 0.53 µM and the IC50 amounted to 16.6 ± 2.13 µM. In data set [1], the chromatographic logD was determined as 2.3.

Usually fraction unbound stands for free concentration divided by total concentration. Broadly, the Kd is the concentration at which binding is half-saturated. Broadly, the IC50 is the point on the concentration scale where inhibition reaches its midpoint.

The values are drawn from publication PMC10544018 (Journal of Medicinal Chemistry, 2023).
